The test concerns lung alveoli of mice damaged by toxic tobacco smoke exposure. Put plainly: Mouse model of intoxication by chronic inhalation of tobacco smoke, L-NIL in drinking water. The format is in vivo. The method, then: The regeneration and healing of the lung alveoli by L-NIL is shown in a mouse model of intoxication by chronic inhalation of tobacco smoke. In this model, mice are exposed to a stream of tobacco smoke in a concentration of 140 mg/m^3 for 6 h per day, 5 days a week over a period of up to 8 month.
The structural and functional pulmonary changes due to toxic smoke exposure were quantified with techniques suitable for this purpose. To assess the degree of alveolar damage, the mean linear intercept, alveolar septal wall thickness and the air space volume was quantified.
Parameters for the extent of vascular remodeling comprise the measurement of vascular wall thickness, staining for alpha-smooth muscle actin and von-Willebrand factor as well as the mean cross-sectional area of the vessels.
Functional measurements include the quantification of the lung function in spontaneously breathing as well as artificially ventilated mice with respect to airway resistance, lung compliance and volume flow. To evaluate functional changes of the vessels, lungs are investigated in an isolated perfused and ventilated experimental set-up, and pulmonary vascular resistance and reactivity are measured. The vascular reactivity is determined by quantifying the extent of vasoconstriction after addition of phenylephrine and can be deduced from dose/effect curves.
In a second experiment, L-NIL was administered orally via drinking water in a concentration of 600 μg/ml for a period for 3 months to treat mice with alveolar damage/destruction as a result of 8 months of toxic smoke exposure.

Setting [1] is: curative: oral L-NIL in drinking water 600 μg/ml for 3 months after 8 months of toxic smoke exposure.

One compound from patent publication US20130123364A1 (priority 2011, published 2013) can be followed below.

Structures are written as SMILES. “Also recorded” adds a separate entry of the source.

With `[H]/N=C(/C)NCCCC[C@H](N)C(=O)O` [L-NIL, N^6-(1-iminoethyl)-L-lysine], the “Proliferation, PCNA-positive cells in lung sections (FIGS. 5A to 5D)” value (L-NIL for 3 month after lung exposure to toxic smoke for 8 months) was “induction of proliferation”. The “Elastic fibers network, elastin-stained lungs (FIGS. 3A to 3D)” value (L-NIL treatment after destruction by toxic tobacco smoke exposure) is recorded as “regeneration of the elastic fibers network”. Also, the “Total number of alveoli assessed by quantitative stereology (FIG. 2)” value (L-NIL treatment after toxic tobacco smoke exposure) is “regeneration of alveoli”. Further, under setting [1], the Lung function result was “lung function improvement” and the “Regeneration of alveolar lung structure” value is listed as “regeneration of the damaged or destroyed lung alveoli; also recorded: complete regeneration of the alveolar lung structure”. For the same compound, the “Protection against alveolar damage/destruction (alveolar morphometry and lung functional measurements)” value (preventive: oral L-NIL in drinking water 600 μg/ml in parallel to smoke exposure over 8 months) was “complete protection against alveolar damage/destruction”.
